pIC50: −log10 of the molar value. ≈ marks a conversion by molar mass, not a printed value.
Columns and labels:
Adenosine receptor A1 = molecular target: T1, Adenosine receptor A1 (Homo sapiens, UniProt P30542); assay: Displacement of [3H]DPCPX from human adenosine A1 receptor expressed in CHO cells; type: cell-based
T1 sequence (P30542 whole entry): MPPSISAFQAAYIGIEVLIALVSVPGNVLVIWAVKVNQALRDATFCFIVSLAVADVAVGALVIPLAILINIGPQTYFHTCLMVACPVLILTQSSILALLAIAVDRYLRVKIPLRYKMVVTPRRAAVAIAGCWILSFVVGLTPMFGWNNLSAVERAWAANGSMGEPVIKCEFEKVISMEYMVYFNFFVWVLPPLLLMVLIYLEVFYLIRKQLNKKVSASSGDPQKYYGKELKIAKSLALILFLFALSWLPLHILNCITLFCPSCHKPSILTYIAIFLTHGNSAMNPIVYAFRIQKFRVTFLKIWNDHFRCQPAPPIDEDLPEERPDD

Adenosine receptor A3 = molecular target: T2, Adenosine receptor A3 (Homo sapiens, UniProt P0DMS8); assay: Displacement of [3H]NECA from human adenosine A3 receptor expressed in HeLa cells; type: cell-based
T2 sequence (P0DMS8 whole entry): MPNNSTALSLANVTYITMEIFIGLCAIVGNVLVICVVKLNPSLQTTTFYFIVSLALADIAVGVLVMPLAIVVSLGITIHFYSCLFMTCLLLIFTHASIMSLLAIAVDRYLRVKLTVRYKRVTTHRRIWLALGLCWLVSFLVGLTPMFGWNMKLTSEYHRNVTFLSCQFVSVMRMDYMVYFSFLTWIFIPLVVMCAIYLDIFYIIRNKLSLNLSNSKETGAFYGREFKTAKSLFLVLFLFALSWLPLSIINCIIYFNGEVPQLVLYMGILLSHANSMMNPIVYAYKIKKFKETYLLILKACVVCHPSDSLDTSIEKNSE

Adenosine receptor A2b = molecular target: T3, Adenosine receptor A2b (Homo sapiens, UniProt P29275); assay: Displacement of [3H]DPCPX from human adenosine A2B receptor expressed in HEK293 cells; type: cell-based
T3 sequence (P29275 whole entry): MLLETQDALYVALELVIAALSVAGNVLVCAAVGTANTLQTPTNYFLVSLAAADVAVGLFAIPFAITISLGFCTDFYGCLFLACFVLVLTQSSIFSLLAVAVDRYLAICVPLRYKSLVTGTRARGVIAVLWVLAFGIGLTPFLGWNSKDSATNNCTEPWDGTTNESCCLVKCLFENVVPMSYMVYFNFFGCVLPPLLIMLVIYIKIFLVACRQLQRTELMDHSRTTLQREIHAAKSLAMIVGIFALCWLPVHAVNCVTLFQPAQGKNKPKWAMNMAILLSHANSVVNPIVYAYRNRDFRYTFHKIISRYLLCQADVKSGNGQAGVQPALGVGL

[1] = Solubility at pH 1.2; type: physicochemical; conditions: buffer
[2] = AUC in rat at 10 mg/kg, po; type: ADME, organism-based; set-up: dose 10 mg/kg, route oral; conditions: plasma
[3] = Tmax in rat at 10 mg/kg, po; type: ADME, organism-based; set-up: dose 10 mg/kg, route oral; conditions: in vivo
[4] = molecular target: Adenosine receptors; A1 & A2b (Homo sapiens) (UniProt P30542+P29275); assay: Selectivity for human adenosine A2B receptor over adenosine A1 receptor; type: protein assay
[5] = molecular target: Adenosine receptors; A2b & A3 (Homo sapiens) (UniProt P29275+P0DMS8); assay: Selectivity for human adenosine A2B receptor over adenosine A3 receptor; type: protein assay
[6] = Solubility of the compound; type: physicochemical

Row | pIC50 (Adenosine receptor A1) | pIC50 (Adenosine receptor A3) | pIC50 (Adenosine receptor A2b) | SMILES | also measured
1 | 6.40 | 5.19 |  | Cn1c(=O)c2[nH]c(-c3ccc(S(=O)(=O)NCCOc4ccccn4)cc3)cc2n(C)c1=O | 
2 | 6.82 | 5.05 |  | Cn1c(=O)c2[nH]c(-c3ccc(S(=O)(=O)N4CCN(Cc5cccc(F)c5)CC4)cc3)cc2n(C)c1=O | 
3 | 6.46 | 4.66 | 7.82 | CCn1c(=O)c2[nH]c(-c3ccc(S(=O)(=O)N4CCN(Cc5cccc(F)c5)CC4)cc3)cc2n(CC)c1=O | 
4 | 7.00 | 4.42 | 7.70 | COc1ccc(CNS(=O)(=O)c2ccc(-c3cc4c([nH]3)c(=O)n(C)c(=O)n4C)cc2)nc1 | 
5 | 6.91 | 6.07 |  | CCCn1c(=O)c2[nH]c(-c3ccc(S(=O)(=O)NCCc4ccccn4)cc3)cc2n(C)c1=O | 
6 | 6.99 | 5.28 |  | Cn1c(=O)c2[nH]c(-c3ccc(S(=O)(=O)N4CCN(Cc5ccc(Cl)s5)CC4)cc3)cc2n(C)c1=O | 
7 | 7.23 | 5.83 | 7.74 | CCCn1c(=O)c2[nH]c(-c3ccc(S(=O)(=O)NC4CCN(Cc5ccccc5)CC4)cc3)cc2n(CCC)c1=O | 
8 |  |  | 7.37 | Cn1c(=O)c2[nH]c(-c3ccc(S(=O)(=O)NC4CCN(Cc5ccccc5)CC4)cc3)cc2n(C)c1=O | 
9 |  |  | 7.57 | Cn1c(=O)c2[nH]c(-c3ccc(S(=O)(=O)N4CCN(Cc5ccncc5)CC4)cc3)cc2n(C)c1=O | 
10 | 7.27 | 5.82 |  | COc1ccc(NS(=O)(=O)c2ccc(-c3cc4c([nH]3)c(=O)n(C)c(=O)n4C)cc2)cn1 | 
11 | 6.82 | 5.68 |  | Cn1c(=O)c2[nH]c(-c3ccc(S(=O)(=O)NCCc4ccccn4)cc3)cc2n(C)c1=O | solubility [1]: 57 µg/mL (≈ 130 µM); AUC [2]: 985 ng·h/mL; Tmax [3]: 6 h
12 |  |  | 7.77 | CCCn1c(=O)n(C)c(=O)c2[nH]c(-c3ccc(S(=O)(=O)N4CCN(Cc5cccc(F)c5)CC4)cc3)cc21 | 
13 | 6.43 | 6.02 | 8.22 | CCCn1c(=O)c2[nH]c(-c3ccc(S(=O)(=O)N4CCN(Cc5ccc(C#N)cc5)CC4)cc3)cc2n(C)c1=O | Selectivity ratio [4]: 62; Selectivity ratio [5]: 160
14 | 6.85 | 4.72 | 7.12 | CCn1c(=O)c2[nH]c(-c3ccc(S(=O)(=O)NCCc4ccccn4)cc3)cc2n(CC)c1=O | 
15 | 6.69 | 5.37 | 7.92 | CCn1c(=O)c2[nH]c(-c3ccc(S(=O)(=O)NC4CCN(Cc5ccc(F)cc5)CC4)cc3)cc2n(CC)c1=O | 
16 | 6.38 | 5.50 |  | Cn1c(=O)c2[nH]c(-c3ccc(S(=O)(=O)N4CCN(Cc5ccccc5)CC4)cc3)cc2n(C)c1=O | solubility [1]: 70 µg/mL (≈ 142 µM); AUC [2]: 252 ng·h/mL; Tmax [3]: 6 h
17 | 6.74 | 4.91 | 9.00 | Cn1c(=O)c2[nH]c(-c3ccc(S(=O)(=O)N4CCN(Cc5ccc(Br)cc5)CC4)cc3)cc2n(C)c1=O | Selectivity ratio [4]: 183; Selectivity ratio [5]: 12300
18 | 7.17 | 5.88 |  | Cn1c(=O)c2[nH]c(-c3ccc(S(=O)(=O)Nc4ccccn4)cc3)cc2n(C)c1=O | 
19 |  |  | 8.22 | Cn1c(=O)c2[nH]c(-c3ccc(S(=O)(=O)N4CCN(c5ccccc5)CC4)cc3)cc2n(C)c1=O | solubility [6]: < 10 µg/mL
20 | 7.92 | 5.12 | 7.82 | CCCn1c(=O)c2[nH]c(-c3ccc(S(=O)(=O)NCc4ccc(OC)cn4)cc3)cc2n(C)c1=O | 
21 | 6.90 |  | 8.15 | Cn1c(=O)c2[nH]c(-c3ccc(S(=O)(=O)N4CCN(Cc5ccc(F)cc5F)CC4)cc3)cc2n(C)c1=O | 
22 |  |  | 8.00 | Cn1c(=O)c2[nH]c(-c3ccc(S(=O)(=O)N4CCN(Cc5ccc(F)cc5)CC4)cc3)cc2n(C)c1=O | 
23 |  |  |  | Cn1c(=O)c2[nH]c(-c3ccc(OCC(=O)Nc4ccc(Br)cc4)cc3)cc2n(C)c1=O | solubility [6]: < 10 µg/mL; AUC [2]: < 20 ng·h/mL
24 | 6.99 | 4.83 | 7.89 | CCCn1c(=O)n(C)c(=O)c2[nH]c(-c3ccc(S(=O)(=O)N4CCN(Cc5ccc6c(c5)OCO6)CC4)cc3)cc21 | 
25 |  |  | 7.05 | CN(C1CCN(Cc2ccccc2)CC1)S(=O)(=O)c1ccc(-c2cc3c([nH]2)c(=O)n(C)c(=O)n3C)cc1 | 

— ChEMBL document CHEMBL1138926, “New pyrrolopyrimidin-6-yl benzenesulfonamides: potent A2B adenosine receptor antagonists” (Bioorg Med Chem Lett, 2006)
